The values that follow come from patent US11065296B2, “Antimicrobial peptide, its analog and use” (City University of Hong Kong, priority 2018, dated 2021).

Peptide text beside a SMILES is read from it.

One experiment deals with E. coli PQ37. Nature of the experiment: SOS induction (chromotest). The format is cell-based. The protocol:
(§1) Results are expressed as 2^(−Delta Delta C (T)). […] Results are expressed as 2^(−Delta Delta C (T)).
E. coli PQ37 (Genotype: Sfi A and Lac Z fusion, lac Z) was cultured in lysogeny broth (LB) that contained 57.2 μM of ampicillin overnight (37° C.) and subcultured through 20 dilutions on another day so that OD600 equals to 0.2-0.4. PQ37 was incubated in 0.3 ml AMP (3.4 μM) or Piscidin ([…], 3.77 μM) for 2 hours and then re-suspended in the same volume of Z-buffer (Na2HPO4.7H2O 16.1 g/l, NaH2PO4.2H2O 6.24 g/L, KCl 0.75 g/L, MgSO4.7H2O 0.246 g/L and b-mercaptoethanol 0.3% (v/v)) for carrying out a β-galactosidase assay (β-ga) and alkaline phosphatase assay (ap), respectively. The bacteria were lysed with 0.1 ml of 0.1% SDS and 0.15 ml of chloroform. For the β-ga assay, the reaction was started by adding 0.6 ml of ortho-Nitrophenyl-β-galactoside (ONPG; Catalog number 34055, ThermoFisher Scientific) for color development and then stopped with the addition of 2 ml of 1 M NaCO3 solution. For ap acsay, the reaction was started by adding 0.6 ml of para-Nitrophenylphosphate (PNPP; Catalog number 34045, ThermoFisher Scientific) for color development which was then terminated by the addition of 1 ml of 2 M HCl solution and 1 ml of 2 M Tri-HCl to restore the colour. The absorbance was read at 420 nm against a blank without bacteria. The induction factor (IF) was calculated as the ratio R(x)/R(0) (R(x)=β-g/ap determined for the tested peptide; R(0)=β-g/ap determined for the LB). Furacin (antibiotic) and Piscidin were chosen as the controls. Each experiment was performed in triplicate.

The test system of another experiment is E. tarda. Nature of the experiment: Host resistance assay, Experiment Two: pre-injection 2 h before bacteria. The format is in vivo, Medaka. To be noted: injected 2 h prior to E. tarda. The protocol:
FIG. 11A is a plot showing the effect of Peptide A on viability of cultured mammalian cells, incubated for 48 h in the presence of Peptide A at different concentrations (μg/ml), as determined by MTT assay. Cell viability represented as peptide treated cell numbers over medium-only control. Statistically significant difference as compared to controls (*: p<0.05, **: p<0.01, n=4). FIG. 11B is a plot showing the ability of Peptide A to protect medaka from lethal challenge of E. tarda ([…]). Medaka was injected with 1 μl of Peptide A (0.68 mM), with 1 μl of E. tarda (10^7 CFU/ml) and Peptide A (0.68 mM) mixture, or with E. tarda alone (1 μl of E. tarda:10^7 CFU/ml). […] 20 fish per group. Log-rank (Mantel-Cox) test was applied for the comparison of survival curves (**: p<0.01).
The efficacy of the synthesized AMP to protect medaka against infection was characterized using host resistance assays with intraperitoneal (i.p.) injection of bacteria using a micro-injection machine (PV820 Pneumatic PicoPump). In Experiment One, 80 medaka fish were used and divided into four groups (20 fish in each group, male, 6 months): (1) Group 1 was injected with only 1 μl of PBS in each fish; (2) Group 2 was injected with only 1 μl of novel AMP (0.68 mM) in each fish; (3) Group 3 was injected with 1 μl of bacteria (at a titer of 5×10^7 CFU/ml); and (4) bacteria and novel AMP were mixed for 5 min and then 1 μl of the mixture was injected into Group 4 (Bacteria: 5×10^7 CFU/ml, AMP: 0.68 mM). In Experiment Two, 60 fish were used and divided into three groups: each fish was injected with 1 μl of PBS, ampicillin (5.7 mM) or Peptide A (1.36 mM). The fish were anesthetized in MS222 for 30 s before microinjection. After two hours, 1 μl of bacteria (5×10^7 CFU/ml) was injected into the fish. All of the fishes were kept under a static condition of 26° C.±1° C., with 14:10 hrs of a light-dark cycle. The water was replaced every two days. The fish were fed three times each day. The number of dead fish was counted on a daily basis until two weeks after the injections.

Another experiment deals with CpxR. Nature of the experiment: Quantitative real-time PCR. The format is cell-based. To be noted: E. tarda, Piscidin 7.5 μM, 1 hour.
Text: as §1
Each group has 6 biological replicates. […] Gene-specific primers were designed with Primer-BLAST (NCBI).
A general note: In qPCR the cycle at which signal appears reflects the starting amount.

Experiment [1] relates to E. coli. The format is cell-based.
Experiment [2] relates to E. coli. Put plainly: Antibacterial activities of the peptide analogs (relative OD600). The format is cell-based. From the text:
FIG. 10 is a plot showing the antibacterial activities of the peptide analogs on E. coli. C-amidation: C-terminus amidated Peptide A; B1: RIILRAQGALKI; B2: IRIILRAQGALK; B3: RIILR. Results expressed as relative OD600 compared to culture medium group (%) (*: p<0.05, **: p<0.01, n=3)

For `NC(=O)N/N=C/c1ccc([N+](=O)[O-])o1` [Furacin], the “SOS response (expression of LacZ), positive control” value in the experiment on E. coli PQ37 (E. coli, different doses of Furacin) is “dose-dependent expression of LacZ”.

On to `CC1(C)S[C@@H]2[C@H](NC(=O)[C@H](N)c3ccccc3)C(=O)N2[C@H]1C(=O)O` [Ampicillin, reference compound], for which the initial survival rate entry in the experiment on E. tarda (one day post injection, Peptide A 1.37 mM, Ampicillin 5.7 mM, 1 μl) is reported as “about 45%”. Further, in the experiment on E. tarda (two weeks after infection), the “effect on E. tarda infection / surviving fish” value is given as “ineffective”.

With `CC(C)C[C@H](NC(=O)[C@H](Cc1ccc(O)cc1)NC(=O)[C@H](Cc1c[nH]cn1)NC(=O)[C@H](CCCCN)NC(=O)[C@H](CC(C)C)NC(=O)[C@H](C)NC(=O)[C@H](CC(C)C)NC(=O)[C@H](CCCCN)NC(=O)CNC(=O)[C@@H](NC(=O)[C@@H](NC(=O)[C@H](CCCCN)NC(=O)[C@@H](NC(=O)[C@H](CCC(=O)O)NC(=O)[C@H](C)NC(=O)[C@H](CCCCN)NC(=O)[C@H](CCCCN)NC(=O)[C@H](CC(C)C)NC(=O)[C@H](CC(C)C)NC(=O)[C@@H](NC(=O)[C@H](CCCNC(=N)N)NC(=O)[C@H](Cc1c[nH]c2ccccc12)NC(=O)CN)[C@@H](C)O)C(C)C)[C@@H](C)O)C(C)C)C(=O)O` [Piscidin] (H-GWRTLLKKAEVKTVGKLALKHYL-OH; N-terminus and C-terminus assumed), in the experiment on CpxR, the CpxR gene expression entry is given as “no effect”. For the same molecule, the “SOS response (induction factor)” value in the experiment with E. coli PQ37 (E. coli PQ37, 120 min, Peptide A 3.4 μM, Piscidin 3.77 μM) is listed as “no effect on SOS response”. Moreover, in the experiment on E. coli [1], the “MIC for E. coli” value was found to be 3.77 µM.

Consider “IRIILRAQGALK [Peptide B2, Peptide A with the C-terminal amino acid removed]”, for which the “antibacterial activity compared with Peptide A” value in the experiment on E. coli [2] is “reduce the antibacterial effect”.

As to “RIILRAQGALKI [Peptide B1, Peptide A with the N-terminal amino acid removed]”, the “antibacterial activity compared with Peptide A” value in the experiment with E. coli [2] is reported as “reduce the antibacterial effect”.

For the molecule RIILR [Peptide B3], the “antibacterial activity compared with Peptide A” value with E. coli [2] is “much weaker antibacterial activity”.
